In US11414398B2, “Selective organic cation transporters inhibitors for the treatment of depressive disorders” (priority 2017, dated 2022):
“Also recorded” adds a separate entry of the source.

Assays:
[1] = Forced swim test, acute administration; assay type: in vivo
[2] = Metabolic conversion in microsomal fraction; assay type: in vitro ADME; details: 100 μM, rat liver microsomes 1 mg protein/mL, NADPH generating system, 37° C.
Procedure: Method. […] The reactions were stopped by adding one-half volume of CH3CN containing 8% CH3COOH and the proteins were removed by centrifugation at 13000 g. […] B=CH3CN/HCOOH (999:1)) at 200 μL/min. Mass spectra were obtained by electrospray ionization (ESI) in positive ionization mode detection under the following conditions: source parameters, […], 15; auxiliary gas, 5; spray voltage, 3.2 kV; capillary temperature, 275° C.; and m/z range for MS recorded generally between 150 and 900. For all products, the indicated parent ions corresponded to [M+H]^+.

[3] = system: corticosterone-induced depression model; assay: Elevated O-maze test, corticosterone-induced depression; assay type: in vivo, mice; details: after 21 days; i.p. daily: I-1 0.1 mg/kg/day, fluoxetine 15 mg/kg/day or both
Procedure: Corticosterone-induced depression. […] The experimental scheme is represented on FIG. 1A. Elevated O-maze test. The elevated O-maze consisted of an annular runway positioned 40 cm above the floor and divided into two opposing 90° closed sectors and two 90° open sectors. The mice were individually placed in the closed sector and their behavior recorded over a 5-min period. The time spent in each sector and the number of sector entries (a sector entry was defined as all four of the paws being placed in a sector) were determined by video tracking (Viewpoint, Lyon, France) (FIGS. 1D and 1E).

[4] = system: autophagy and proteasome pathways in the brain; assay: Toxicity: cell death pathways in the brain, Western blots; details: mouse, in vivo
Procedure: (§1) Corticosterone-induced depression. To induce a chronic depression-like state, individually housed mice were administered corticosterone ([…]; Sigma-Aldrich) dissolved in 0.45% (wt/vol) hydroxypropyl-b-cyclodextrin (Sigma-Aldrich) as in (Bacq et al., Mol. Psychiatry, 2012, 17, 926-939). […] The mice were tested successively for coat sate, sucrose consumption, elevated O-maze, object location test and social interaction, before antidepressant treatment, and after 10 days and 3 weeks of treatment. The experimental scheme is represented on FIG. 1A.
Cell death pathways in the brain—Western blots. […] Samples were homogenized by sonication in 2 vol of ice-cold phosphate-buffered saline containing 1% Triton X-100, protease inhibitors (Complete Protease Inhibitor Cocktail, Roche Diagnostics, Basel, Switzerland) and phosphatase inhibitors (Phosphatase Inhibitor Cocktail 3; Sigma-Aldrich). Protein concentrations were determined by Bradford's method. Proteins samples (15 μg) suspended in NuPage LDS sample buffer (Invitrogen, Carlsbad, Calif., USA) were separated by Bis-Tris sodium dodecyl sulfate polyacrylamide gel electrophoresis (10% gels) and transferred onto nitrocellulose membranes (Invitrogen). Transfer efficacy was controlled by Ponceau S staining. Unspecific binding sites were blocked in Tris-buffered saline containing 0.1% Tween-20 and 5% nonfat milk and membranes were immunoprobed with antibodies against β-actin ( 1/2500) and β-catenin ( 1/300) from Sigma-Aldrich or LC3B ( 1/5000) from Abcam. Membranes were incubated with infrared-labeled secondary antibodies (IRDye 700DX and IRDye 800CW; 1/5000; Rockland, Gilbertsvillle, Pa., USA). Immunoblotting was quantified with the Odyssey Infrared Imaging System and Application Software version 3.0 (LI-COR Biosciences, Lincoln, Nebr., USA).

[5] = Effect on weight, corticosterone-induced depression; assay type: in vivo, mice; details: weight measured daily; I-1 0.1 mg/kg/day, fluoxetine 15 mg/kg/day or both, i.p.
Procedure: Corticosterone-induced depression. […] The experimental scheme is represented on FIG. 1A. Effect on weight. The weight of tested mice was measured daily in the morning (FIG. 2D).

[6] = mouse, in vivo
Procedure: as §1
Blood parameter evaluation. Blood was collected in lithium heparin after the 3 weeks of treatment. Hemograms were performed with a Siemens ADVIAZ 120 apparatus. For biochemistry, blood was centrifuged at 2000 g for 10 min at +4° C. and supernatant was analyzed with a COBAS 6000 (Roche) apparatus.

[7] = system: corticosterone-induced depression model; assay: Coat state, corticosterone-induced depression; assay type: in vivo, mice; details: both time points; i.p. daily: I-1 0.1 mg/kg/day, fluoxetine 15 mg/kg/day or both
Procedure: Corticosterone-induced depression. […] The experimental scheme is represented on FIG. 1A. Coat state. The coat state of each animal was assessed weekly as a measure of motivation toward self-care. It was evaluated as the sum of the score of different parts of the body, ranging between 0 for a well-groomed coat and 1 for an unkempt coat for head, neck, dorsal/ventral coat, tail and forepaws/hindpaws (FIG. 1B).

[8] = Acute administration: locomotor activity and anxiety level; assay type: in vivo
social defeat model = assay: Social defeat model, social interaction test; assay type: in vivo, mice; details: after 3 weeks of treatment; fluoxetine 17 mg/kg, compound (I-1) 0.1 mg/kg as printed
Procedure: (§2) Social defeat model. For social defeat, 8-week-old C57Bl/6J mice were submitted to social defeat stress for 10 consecutive days as described (Berton et al., Science, 2006, 311(5762), 864-8). […] The experimental scheme is represented on FIG. 1H. Social interaction test. The social interaction test was performed in a white open-field (42×42 cm) containing an empty wire mesh cage (10×6.5 cm) located at an extremity of the field in a low luminosity environment (25 lux). Each test mouse was allowed to explore the openfield for two consecutive sessions of 2.5 min. During the second session, an unfamiliar mouse was introduced into the cage. Between the two sessions, the test mouse was placed back into its home cage for approximately one minute. The time spent by the test mouse in the interaction zone, defined as an 8-cm-wide region surrounding the mesh cage, was measured in both sessions by video tracking (Viewpoint, Lyon, France) (FIGS. 1G and 1I).

[9] = system: corticosterone-induced depression model; assay: Sucrose preference test, corticosterone-induced depression; assay type: in vivo, mice; details: i.p. daily: I-1 0.1 mg/kg/day, fluoxetine 15 mg/kg/day or both
Procedure: Corticosterone-induced depression. […] The experimental scheme is represented on FIG. 1A. Sucrose preference test. Singled-house mice were first habituated for 48 h to drink water from two bottles.

[10] = system: corticosterone-induced depression model; assay: Open-field test, corticosterone-induced depression; assay type: in vivo, mice
Procedure: as §1
Open-field test. The open field consisted of a white Plexiglas field (100×100×30 cm) with the center brightly illuminated (500 lux). General locomotor activity in the center and periphery of the open field were scored for 9 min. The time and number of entries in the center zone (60×60 cm) were evaluated as an index of anxiety-related response (FIG. 2B).

[11] = system: corticosterone-induced depression model; assay: Social interaction test, corticosterone-induced depression; assay type: in vivo, mice; details: 21 days of treatment; compared to corticosterone
Procedure: as §2, with “Corticosterone-induced depression.” for “Social defeat model. For social defeat, 8-week-old C57Bl/6J mice were submitted to social defeat stress for 10 consecutive days as described (Berton et al., Science, 2006, 311(5762), 864-8).”, “1A.” for “1H.”

[12] = compared to fluoxetine-treated and fluoxetine plus compound (I-1) treated groups

COc1ccc2c(c1)CC/C(=C/c1cc[n+](C(C)C)c3ccccc13)N2C(C)C [Compound I-1, (Z)-1-isopropyl-4-((1-isopropyl-6-methoxy-3,4-dihydroquinolin-2(1H)-ylidene)methyl)quinolin-1-ium Iodide]
immobility time in the forced swim test [1]: moderate but reproducible lowering (antidepressant-like) action | metabolisation on incubation with microsomes [2]: led to the metabolisation | latency to enter the open zone of the elevated O-maze [3]: decreased the latency to enter this zone | time in the open zone of the elevated O-maze [3]: increased the time in the open zone | LC3II/LC3I ratios [4]: comparable LC3II/LC3I ratios | autophagy and proteasome pathways in the brain [4]: does not alter autophagy and proteasome pathways in the brain | β-catenin levels [4]: comparable | effect on weight [5]: no significant effect; also recorded: did not decrease weight | ALP [6]: 53.3 ± 2.2 U/L | ALT [6]: 49.5 ± 4.2 U/L | AST [6]: 164.8 ± 6.2 U/L | Creatinine [6]: 0.43 ± 0.06 mg/dL | Hematies [6]: 8.96 ± 0.5 T/L | Leucocytes [6]: 2.89 ± 0.4 g/L | Platelets [6]: 254.1 ± 56.5 | Total bilirubin [6]: 0.12 ± 0.01 mg/dL | Urea [6]: 61.7 ± 1.9 mg/dL | hepatotoxicity compared with fluoxetine [6]: less hepatotoxicity | coat state [7]: improved coat state at both time points | anxiety level [8]: no effect | locomotor activity [8]: no effect | reversal of social aversion (time in interaction zone with target) (social defeat model): not by compound (I-1) | sucrose preference ([9]; 11 days of treatment): significantly increased sucrose preference at 11 days | sucrose preference ([9]; 21 days of treatment): significantly increased sucrose preference at 21 days | locomotor activity at the periphery of the open field ([10]; compared to corticosterone, I-1 0.1 mg/kg/day, fluoxetine 15 mg/kg/day or both, i.p.): significant effect; also recorded: restored normal locomotor activity | locomotor activity in the center of the open field [10, 12]: significant increase | time in the center of the open field [10, 12]: significant increase | interaction time in social interaction test [11]: significant effects on interaction time
